In patent US11331379B2, “Compositions and methods for regulating pancreatic beta cell function using adipsin” (Dana-Farber Cancer Institute, Inc., priority 2014, dated 2022):

Tests used:
C3aR1 [1] = target: T1, C3aR1 (Mus musculus, UniProt O09047); assay: C3aR1 antagonist treatment of adipsin-adenovirus-transduced db/db mice, i.p. GTT and plasma insulin; type: in vivo
T1 construct: endogenous in cells; host or cells: db/db mice (Jackson Laboratories, Stock 000697), whole animal
T1 sequence (O09047 1-477): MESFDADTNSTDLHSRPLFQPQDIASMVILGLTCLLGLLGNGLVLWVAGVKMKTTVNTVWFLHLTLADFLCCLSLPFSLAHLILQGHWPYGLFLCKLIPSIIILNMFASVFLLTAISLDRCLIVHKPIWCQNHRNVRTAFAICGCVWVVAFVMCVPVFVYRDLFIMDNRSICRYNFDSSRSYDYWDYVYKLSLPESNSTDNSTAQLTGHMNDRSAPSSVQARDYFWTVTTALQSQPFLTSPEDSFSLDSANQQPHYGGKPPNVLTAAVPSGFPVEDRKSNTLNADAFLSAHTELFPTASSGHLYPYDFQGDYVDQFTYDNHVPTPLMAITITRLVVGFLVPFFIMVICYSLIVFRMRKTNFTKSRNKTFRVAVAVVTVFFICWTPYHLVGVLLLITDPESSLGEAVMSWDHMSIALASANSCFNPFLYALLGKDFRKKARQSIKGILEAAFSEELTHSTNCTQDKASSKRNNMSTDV
Source text: Wild-type (WT) and Adipsin^−/− mice (from G. Stahl, Brigham and Women's Hospital, Boston, Mass., USA) were backcrossed 7-10 generations to C57BL/6 (B6) background. Control littermate mice from same backcrossed generations were used for experiments. B6 mice were fed a regular chow diet or a 60% kCal high fat diet (Research Diets, New Brunswick, N.J., USA) for the indicated times. db/db mice (Stock 000697) were purchased from Jackson laboratories (Bar Harbor, Me., USA). For adenoviral expression studies, mice were injected intravenously with lacZ or adipsin-expressing pAd adenoviral vectors (Life Technologies, Grand Island, N.Y., USA) and assayed 5 days later. For C3aR1 antagonist experiments, SB 290157 (N^2-[(2,2-Diphenylethoxy)acetyl]-L-arginine, TFA, Millipore, Billerica, Mass., USA) dosed at 30 mg/kg or vehicle (10% ethanol) was administered by intraperitoneally (i.p.) injections bis in die (b.i.d.) from days 3-5 after adenovirus. Mice were fasted overnight for glucose tolerance tests and given an i.p. injection of D-glucose ([…] for regular diet mice). For insulin tolerance tests, mice were fasted for 5 hours and given an i.p. injection of insulin (0.75 units/kg body weight). Blood samples were taken from the tail vein and measured with a glucometer. The mice were housed in a facility accredited by the American Association for Laboratory Animal Care. The Institutional Animal Care and Use Committee of the Beth Israel Deaconess Medical Center approved studies using animals.

murine islets = assay: static glucose-stimulated insulin secretion (GSIS) assay in isolated islets; type: cell-based, mouse; settings: for enhancement of insulin secretion: islets from WT mice on chow diet
Experimental: (§1) Recombinant C3a and C5a proteins (R&D Systems, Minneapolis, Minn., USA) were used at a concentration of 100 nM. Anti-adipsin antibody for Western blot analysis was from Santa Cruz Biotechnology, Santa Cruz, Calif., USA). Antibodies to C3aR1 (Santa Cruz Biotechnology), C5aR1 (Biolegend, San Diego, Calif., USA) and C5L2 (Hycult Biotechnology, Plymouth Meeting, Pa., USA) were used for flow cytometry. RNA isolation and reverse transcription were performed with TRIzol® (Life Technologies), RNeasy (Qiagen, Valencia, Calif., USA) and cDNA synthesis (Agilent Technologies, Santa Clara, Calif., USA) kits. qPCR reactions were done with SYBR green on an ABI PRISM® 7900HT real time PCR system (Life Technologies).
Islets were isolated from pancreata of the indicated genotype with collagenase digestion as previously described (Danial et al. (2008) Nat. Med. 14:144-153). For static incubation (batch release) assays, islets were handpicked and placed into basal Krebs buffer containing 3 mM glucose followed by transfer into Krebs solution containing the indicated concentrations of glucose or secretagogues. After 45 min incubation at 37° C., the islets were pelleted and the supernatant was collected for insulin measurement. The pellet was solubilized to assess intracellular insulin content. Insulin was measured by ELISA using mouse insulin as a standard (Crystal Chem Inc., Downers Grove, Ill., USA).

islets [2] = assay: cytoplasmic free Ca2+ measurement in perifused islets (Fura-2); type: cell-based, mouse
Experimental: as §1
For measurements of cytoplasmic free Ca^2+ concentration, islets were loaded with 2 μM Fura-2/AM (Molecular Probes, Eugene, Oreg., USA) for 60 min. in the presence or absence of C3a in a buffer containing (in mM) 125 NaCl, 5.9 KCl, 1.28 CaCl2, 1.2 MgCl2, 25 HEPES, and 3 glucose and 0.1% BSA (pH 7.4). After loading, a single islet was transferred to an open perifusion chamber maintained at 37° C. and [Ca^2+], was measured as the 340/380 nm fluorescence ratio using a Spex FluoroLog® spectrophotometer coupled to a Zeiss Axiovert 35 M microscope with a Zeiss Fluar 40×/1.30 oil objective (Carl Zeiss, Gottingen, Germany). Concentrations of 20 mM glucose and 50 mM KCl (in the presence of 3 mM glucose) were used for islet stimulation.

islets [3] = assay: oxygen consumption rate (OCR) of islets, XF24 analyzer; type: cell-based, mouse
Experimental: as §1
Real-time measurements of mitochondrial oxygen consumption rate (OCR) were performed using the XF24 extracellular flux analyzer instrument and the AKOS algorithm built in the XF24 v1.7.0.74 software (Seahorse Bioscience, Inc., Billerica, Mass., USA). Islets were rinsed with sodium bicarbonate-free DMEM supplemented with 0.5% BSA and 3 mM glucose and 60 islets were distributed per well and recounted for OCR measurements. After baseline measurements, substrates or inhibitors of interests were added in single 50 μl injections delivered through individual injection ports. […] The respiratory rate of each islet sample was measured at 37° C. and analyzed using the Seahorse XF24 v1.5.0.69 software.

C3aR1 [4] = target: T1, C3aR1; assay: GSIS assay in islets from wild-type and C3aR1-deficient mice with or without C3a; type: cell-based; settings: WT versus C3aR1-deficient islets
Source text: Panels A and B show the relative expression of Adipsin (Panel A) and C3 (Panel B) in liver, quadriceps muscle (quad), islets, epididymal (epi) and inguinal (ing) fat. Samples were quantitated by qPCR. Panels C-E show the results of flow cytometry performed on islet cells with antibodies to the complement/anaphylatoxin receptors C3aR1 (Panel C), C5aR1 (Panel D), and C5L2 (Panel E). Panels F-G show the results of isolated islets from WT mice on a chow diet (Panel F) or HFD (Panel G) subjected to a GSIS assay in the presence or absence of recombinant C3a and C5a with the indicated concentrations of glucose. Panels H and I show the results of db/db mice transduced with lacZ or adipsin adenovirus ([…]) treated with vehicle or C3aR antagonist (SB 290157) at a dose of 30 mg/kg b.i.d. for 3 days and subjected to an i.p. GTT with measurements of blood glucose concentrations (Panel H) and plasma insulin levels (Panel I) at the indicated times. Statistics for GTT assays between groups: lacZ/vehicle vs. adipsin/vehicle, p=0.05; adipsin/vehicle vs. adipsin/SB 290157, p<0.01; lacZ/SB 290157 vs. adipsin/vehicle, p<0.01. […]
Islets were isolated from pancreata of the indicated genotype with collagenase digestion as previously described (Danial et al. (2008) Nat. Med. 14:144-153). […] Insulin was measured by ELISA using mouse insulin as a standard (Crystal Chem Inc., Downers Grove, Ill., USA).

N=C(N)NCCC[C@H](NC(=O)COCC(c1ccccc1)c1ccccc1)C(=O)O.O=C(O)C(F)(F)F [SB 290157, N^2-[(2,2-Diphenylethoxy)acetyl]-L-arginine, TFA]
improvements in insulin secretion conferred by the adipsin adenovirus (C3aR1 [1]; db/db mice with adipsin adenovirus, antagonist 30 mg/kg i.p. b.i.d. for 3 days): nearly completely reversed
improvements in glucose tolerance conferred by the adipsin adenovirus (C3aR1 [1]; db/db mice with adipsin adenovirus, antagonist 30 mg/kg i.p. b.i.d. for 3 days, i.p. GTT): nearly completely reversed
insulin induction from time 0 to 20 minutes (C3aR1 [1]; db/db mice, adipsin adenovirus plus SB 290157 30 mg/kg b.i.d. 3 days, i.p. glucose challenge): 1.4 fold

C3a: Recombinant C3a protein (R&D Systems); complement peptide, direct product of C3 convertase generated by adipsin
insulin secretion in conjunction with tolbutamide (murine islets; 0.25 mM tolbutamide, C3a 100 nM): further stimulated insulin secretion
insulin secretion in conjunction with KCl (murine islets; 30 mM KCl, C3a 100 nM): further stimulated insulin secretion
enhancement of insulin secretion (murine islets; high glucose, 100 nM, acute): 30-40%
insulin secretion in diabetic islets (murine islets; islets from diabetic mice fed a HFD, 100 nM): stimulated insulin secretion
enhancement of insulin secretion (murine islets; low glucose, 100 nM): not low
basal levels of [Ca2+]i (islets [2]; 3 mM glucose, C3a-treated versus control islets): similar
[Ca2+]i in response to glucose and KCl (islets [2]; 20 mM glucose and KCl stimulation): potently augmented
response times of [Ca2+]i (islets [2]; C3a-treated versus non-treated islets): similar
increase of [Ca2+]i area under the curve (islets [2]; KCl stimulation): ~100%
increase of peak [Ca2+]i (islets [2]; KCl stimulation): ~100%
increase of [Ca2+]i area under the curve (islets [2]; glucose stimulation (20 mM)): ~50%
increase of peak [Ca2+]i (islets [2]; glucose stimulation (20 mM)): ~50%
increases in [Ca2+]i (islets [2]; isolated islets perifused with glucose or KCl in the presence of C3a): 50-100%
oxygen consumption with glucose challenge (islets [3]; 20 mM glucose, acute C3a, versus control islets): increased oxygen consumption
ATP-coupled respiration (islets [3]; islets, C3a versus control): increases ATP-coupled respiration
C3a-mediated potentiation of glucose-stimulated insulin secretion (C3aR1 [4]): C3aR1 is required

B1: C5a: Recombinant C5a protein (R&D Systems), complement anaphylatoxin (protein, UniProt P01031 678-751, looked up)
C5a anaphylatoxin: TLQKKIEEIAAKYKHSVVKKCCYDGACVNNDETCEQRAARISLGPRCIKAFTECCVVASQLRANISHKDMQLGR
modifications: C5a anaphylatoxin
enhancement of insulin secretion (murine islets; C5a 100 nM, GSIS): did not show this effect
